Assay results reported in BindingDB's records for doi:10.1016/j.bmc.2014.04.026 (Florida A&M University, 2014).

Biological target: D(3) dopamine receptor (Homo sapiens, UniProt P35462)
Assay: Displacement of [3H]N-methylspiperone from human dopamine D3 receptor by PDSP assay

Sequence of D(3) dopamine receptor (P35462 as listed by the source): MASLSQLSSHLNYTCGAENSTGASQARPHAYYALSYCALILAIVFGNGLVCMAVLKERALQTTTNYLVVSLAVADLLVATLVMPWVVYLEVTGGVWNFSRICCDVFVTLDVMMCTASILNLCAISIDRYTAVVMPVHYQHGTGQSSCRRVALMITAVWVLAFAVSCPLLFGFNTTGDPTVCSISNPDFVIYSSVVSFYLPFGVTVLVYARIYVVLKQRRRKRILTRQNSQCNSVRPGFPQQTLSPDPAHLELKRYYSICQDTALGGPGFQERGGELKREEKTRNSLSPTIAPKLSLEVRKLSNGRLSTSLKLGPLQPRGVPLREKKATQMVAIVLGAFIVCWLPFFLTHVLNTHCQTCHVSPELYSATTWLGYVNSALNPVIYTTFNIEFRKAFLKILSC

`Clc1ccc(N2C[C@H]3C[C@@H]2CN3CCCc2cc3ccccc3o2)cc1` gave a Ki of 0.671 µM.
